Results taken from ChEMBL document CHEMBL1124452, “New sensitizers for photodynamic therapy: controlled synthesis of purpurins and their effect on normal tissue” (1989).

System: Rattus norvegicus
Test: In vivo cytotoxicity to the FANFT-induced urothelial cell carcinoma transplanted onto Fischer CDF (F344/CrlBR) rats (Tumoricidal activity)
Format: functional

Structure (SMILES) | Therapeutic dose [mg/kg]
CCOC(=O)C1=Cc2c3nc(cc4nc(cc5[nH]c(cc6[nH]c2c(CC)c6CC)c(CC)c5CC)C(CC)=C4CC)C(CC)C13CC (configuration not stated) [OCTAETHYLPURPURIN] | 5
CCOC(=O)C1=Cc2c3nc(cc4nc(cc5[nH]c(cc6[nH]c2c(C)c6CC)c(C)c5CC)C(C)=C4CC)C(C)C13CC (configuration not stated) [ETIOPURPURIN] | 2.5
